Experimental findings from US20240148744A1 (Celgene Corporation, priority 2021, published 2024) are described below.

The structures appear in SMILES notation.

The experiment deals with Onchocerca gutturosa adult male worms. As to the kind of experiment: Onchocerca gutturosa in vitro screening model: adult worm motility score and MTT/formazan viability. Conditions: read-out: O. gutt Activity class. The experiment is classed as cell-based.
In the case of `Cc1cccnc1S(=O)(=O)Nc1cccc2c1NCCC2` [Compound 56, 3-methyl-N-(1,2,3,4-tetra-hydroquinolin-8-yl)pyridine-2-sulfonamide], the IC50 lay within 500 to 5000 nM. Next, `O=S(=O)(Nc1cccc2c1NCCC2)c1ncccc1F` [Compound 46, 3-fluoro-N-(1,2,3,4-tetra-hydroquin-olin-8-yl)-pyridine-2-sulfonamide]: 500 to 5000 nM.

As to `O=S(=O)(Nc1ccnc2cccnc12)c1ccccn1` [Compound 203, N-(1,5-naphthyridin-4-yl)pyridine-2-sulfonamide], the IC50 is 500 to 5000 nM. Next, `O=S(=O)(Nc1cccc2cccnc12)c1ccc(O)cn1` [Compound 218, 5-hydroxy-N-(quinolin-8-yl)pyridine-2-sulfonamide]: 500 to 5000 nM; `O=S(=O)(Nc1cccc2cccnc12)c1ccc(Cl)cn1` [Compound 259, 5-chloro-N-(quinolin-8-yl)pyridine-2-sulfonamide]: 500 to 5000 nM; `O=S(=O)(Nc1cccc2cccnc12)c1c[nH]c2ncccc12` [Compound 204, N-(quinolin-8-yl)-1H-pyrrolo[2,3-b]pyridine-3-sulfonamide]: 500 to 5000 nM.

Take `Cc1ccnc(S(=O)(=O)Nc2cccc3cccnc23)c1` [Compound 234, 4-methyl-N-(quinolin-8-yl)pyridine-2-sulfonamide]: the IC50 is < 200 nM.

On to `Cn1nccc1S(=O)(=O)Nc1cccc2cccnc12` [Compound 252, 1-methyl-N-(quinolin-8-yl)-1H-pyrazole-5-sulfonamide], for which the IC50 is 500 to 5000 nM.

`Cc1ccc(S(=O)(=O)Nc2cc(C(F)(F)F)cc3cccnc23)cc1` [Compound 138, 4-methyl-N-(6-(trifluoro-methyl)quin-olin-8-yl)-benzene-sulfonamide]: the IC50 is 200 to 500 nM.

Regarding `Cc1ccc(NS(=O)(=O)c2ccccn2)c2ncccc12` [Compound 137, N-(5-methyl-quinolin-8-yl)pyridine-2-sulfonamide], the IC50 is < 200 nM. `O=S(=O)(Nc1cccc2cccnc12)c1nnc2ccccn12` [Compound 201, N-(quinolin-8-yl)-[1,2,4]triazolo [4,3-a]pyridine-3-sulfonamide]: the IC50 lay within 500 to 5000 nM. Next, `Cc1cccnc1S(=O)(=O)Nc1cccc2c1CN(C1CC1)CC2` [Compound 36, N-(2-cyclo-propyl-1,2,3,4-tetra-hydroisoquin-olin-8-yl)-3-methylpyr-idine-2-sulfonamide]: 500 to 5000 nM; `N#Cc1cccc(S(=O)(=O)Nc2cccc3cccnc23)c1` [Compound 250, 3-cyano-N-(quinolin-8-yl)benzene-sulfonamide]: 500 to 5000 nM. Next, `O=S(=O)(Nc1cccc2cccnc12)c1ncccn1` [Compound 200, N-(quinolin-8-yl)pyrimidine-2-sulfonamide]: < 200 nM. Next, `CCc1ccc(NS(=O)(=O)c2nccn2C)c2ncccc12` [Compound 130, N-(5-ethyl-quinolin-8-yl)-1-methyl-1H-imidazole-2-sulfonamide]: 500 to 5000 nM; `Cn1nc(N2CCOCC2)cc1S(=O)(=O)Nc1cccc2cccnc12` [Compound 192, 1-methyl-3-morpholino-N-(quinolin-8-yl)-1H-pyrazole-5-sulfonamide]: 500 to 5000 nM; `Cc1cccnc1S(=O)(=O)Nc1cccc2c1CN(C)C2` [Compound 51, 3-methyl-N-(2-methyl-isoindolin-4-yl)pyridine-2-sulfonamide]: < 200 nM. Turning to `O=S(=O)(Nc1cccc2cccnc12)c1ncc[nH]1` [Compound 243, N-(quinolin-8-yl)-1H-imidazole-2-sulfonamide], the IC50 is 500 to 5000 nM. Take `O=S(=O)(Nc1cccc2cccnc12)c1ccc2ccccc2n1` [Compound 239, N-(quinolin-8-yl)quinoline-2-sulfonamide]: the IC50 is < 200 nM.

Take `O=S(=O)(Nc1cccc2cccnc12)c1ccncn1` [Compound 199, N-(quinolin-8-yl)pyrimidine-4-sulfonamide]: the IC50 is 500 to 5000 nM. In the case of `CC(C)n1ccnc1S(=O)(=O)Nc1cccc2cccnc12` [Compound 241, 1-isopropyl-N-(quinolin-8-yl)-1H-imidazole-2-sulfonamide], the IC50 was < 200 nM. Next, `O=S(=O)(Nc1cccc2cccnc12)N1CCCCC1` [Compound 205, N-(quinolin-8-yl)piperidine-1-sulfonamide]: 500 to 5000 nM; `O=S(=O)(Nc1cccc2cccnc12)c1ncccc1C1CC1` [Compound 214]: 200 to 500 nM. Next, `Cc1ccc(S(=O)(=O)Nc2cccc3cc(C)cnc23)cc1` [Compound 96, 4-methyl-N-(3-methyl-quinolin-8-yl)benzene-sulfonamide]: < 200 nM; `Cc1cccnc1S(=O)(=O)Nc1cccc2ccc(-c3ccccc3)nc12` [Compound 22, 3-methyl-N-(2-phenyl-quinolin-8-yl)pyridine-2-sulfonamide]: 500 to 5000 nM; `Cc1cccnc1S(=O)(=O)Nc1cccc2ccc(N3CCC3)nc12` [Compound 23, N-(2-(azet-idin-1-yl)-quinolin-8-yl)-3-meth-ylpyridine-2-sulfonamide]: 500 to 5000 nM. In the case of `Cn1ccc(S(=O)(=O)Nc2cccc3cccnc23)n1` [Compound 255, 1-methyl-N-(quinolin-8-yl)-1H-pyrazole-3-sulfonamide] it was 200 to 500 nM; in that of `N#Cc1ccccc1S(=O)(=O)Nc1cccc2cccnc12` [Compound 249, 2-cyano-N-(quinolin-8-yl)benzene-sulfonamide], 200 to 500 nM. Take `O=S(=O)(Nc1cccc2cncnc12)c1ccccn1` [Compound 202, N-(quinazolin-8-yl)pyridine-2-sulfonamide]: the IC50 was in the range of 500 to 5000 nM. For the compound `CN1CCC(S(=O)(=O)Nc2cccc3cccnc23)CC1` [Compound 216, 1-methyl-N-(quinolin-8-yl)piperidine-4-sulfonamide], the IC50 lay in the range of 500 to 5000 nM. Consider `CN(C)c1cncc(S(=O)(=O)Nc2c(Cl)ccc3cccnc23)n1` [Compound 50, N-(7-chloro-quinolin-8-yl)-6-(dimeth-ylamino)pyr-azine-2-sulfonamide], for which the IC50 was 500 to 5000 nM. Next, `CN1CCc2cccc(NS(=O)(=O)c3ncccc3C3CC3)c2C1` [Compound 37, 3-cyclo-propyl-N-(2-methyl-1,2,3,4-tetra-hydroisoquin-olin-8-yl)pyr-idine-2-sulfonamide]: 200 to 500 nM; `Cc1cc(NS(=O)(=O)c2nccn2C)c2ncccc2c1` [Compound 129, 1-methyl-N-(6-methyl-quinolin-8-yl)-1H-imidazole-2-sulfonamide]: < 200 nM.

`COc1ccc(NS(=O)(=O)c2ccco2)c2ncccc12` [Compound 60, N-(5-meth-oxyquinolin-8-yl)furan-2-sulfonamide]: the IC50 fell in the range of 500 to 5000 nM. Next, `O=S(=O)(Nc1cccc2cccnc12)c1ccc(Cl)cc1` [Compound 285, 4-chloro-N-(quinolin-8-yl)benzene-sulfonamide]: < 200 nM; `N#Cc1ccnc(S(=O)(=O)Nc2c(Cl)ccc3cccnc23)c1` [Compound 71, N-(7-chloro-quinolin-8-yl)-4-cyano-pyridine-2-sulfonamide]: < 200 nM. Next, `COc1cccnc1S(=O)(=O)Nc1cccc2cccnc12` [Compound 223, 3-methoxy-N-(quinolin-8-yl)pyridine-2-sulfonamide]: < 200 nM; `CCn1c(S(=O)(=O)Nc2cccc3cccnc23)nc(C)c1C` [Compound 226, 1-ethyl-4,5-dimethyl-N-(quinolin-8-yl)-1H-imidazole-2-sulfonamide]: < 200 nM. In the case of `O=S(=O)(Nc1cccc2cccnc12)c1cnc(-c2ccccn2)s1` [Compound 170, 2-(pyridin-2-yl)-N-(quinolin-8-yl)thiazole-5-sulfonamide], the IC50 was < 200 nM. Take `COc1cnc(S(=O)(=O)Nc2c(Cl)ccc3cccnc23)cn1` [Compound 78, N-(7-chloro-quinolin-8-yl)-5-meth-oxypyrazine-2-sulfonamide]: the IC50 was in the range of 500 to 5000 nM.

For `O=S(=O)(Nc1ccc(F)c2cccnc12)c1ccco1` [Compound 64, N-(5-fluoro-quinolin-8-yl)furan-2-sulfonamide], the IC50 was < 200 nM. In the case of `Cc1ccc(S(=O)(=O)Nc2ccc(N3CCC(O)(c4ccccc4)CC3)c3cccnc23)cc1` [Compound 95, N-(5-(4-hydroxy-4-phenylpiper-idin-1-yl)-quinolin-8-yl)-4-methyl-benzene-sulfonamide] it was 500 to 5000 nM; in that of `Cc1cnc(S(=O)(=O)Nc2cccc3cccnc23)nc1` [Compound 198, 5-methyl-N-(quinolin-8-yl)pyrimidine-2-sulfonamide], 200 to 500 nM. Next, `Cn1ccnc1S(=O)(=O)Nc1cccc2cccnc12` [Compound 251, 1-methyl-N-(quinolin-8-yl)-1H-imidazole-2-sulfonamide]: < 200 nM. In the case of `Cc1cc(NS(=O)(=O)c2ccccn2)c2ncccc2c1` [Compound 132, N-(6-methyl-quinolin-8-yl)pyridine-2-sulfonamide] it was 200 to 500 nM; in that of `Cc1cccnc1S(=O)(=O)Nc1cccc2c(F)ccnc12` [Compound 12, N-(4-fluoro-quinolin-8-yl)-3-methylpyr-idine-2-sulfonamide], 200 to 500 nM. With `Cc1ccc(S(=O)(=O)Nc2cc(F)c(F)c3cccnc23)cc1` [Compound 136, N-(5,6-difluoroquin-olin-8-yl)-4-methylben-zenesulfon-amide], the IC50 lay within 200 to 500 nM.

On to `CCn1ccnc1S(=O)(=O)Nc1cccc2cccnc12` [Compound 240, 1-ethyl-N-(quinolin-8-yl)-1H-imidazole-2-sulfonamide], for which the IC50 was < 200 nM. Next, `N#Cc1ccc(S(=O)(=O)Nc2cccc3cccnc23)cc1` [Compound 279, 4-cyano-N-(quinolin-8-yl)benzene-sulfonamide]: 200 to 500 nM; `CC(C)n1nccc1S(=O)(=O)Nc1cccc2c1CN(C1CC1)C2` [Compound 40, N-(2-cyclo-propyliso-indolin-4-yl)-1-isopropyl-1H-pyrazole-5-sulfonamide]: 500 to 5000 nM. Next, `Cn1ccnc1S(=O)(=O)Nc1cc(F)cc2cccnc12` [Compound 134, N-(6-fluoro-quinolin-8-yl)-1-methyl-1H-imidazole-2-sulfonamide]: < 200 nM.
